We go through 12 compounds from US12570613B2, “Imidazoquinoline or benzoindazolone compound and intermediate for preparing same” (LMITO THERAPEUTICS INC., priority 2020, dated 2026).

This experiment has as its target NQO1 protein (Homo sapiens, UniProt P15559). In words: In vitro NQO1 enzyme activity assay (cytochrome C reduction, absorbance at 550 nm). In kind it is biochemical. The conditions noted are these: NQO1 2 ng. The protocol: In order to evaluate the activity of the synthesized compound in NQO1, the experiments were performed as follows:
The synthesized compound was dissolved in DMSO to make a 10 mM stock solution, which was further diluted with DMSO to 250 μM so as to prepare a working solution. For experimental groups, the working solution of the compound was added to an enzyme reaction solution in which 50 μL of 1.54 mM Cytochrome C solution was added to 900 μL of 50 mM Tris-HCl (pH7.5) containing 0.14% BSA. For negative control groups, DMSO not containing the compound of the invention was added to the enzyme reaction solution as above. For each experimental and control group, 20 μL of 100 ng/mL NQO1 protein was added, and then 10 μL of 20 mM NADH was added to bring up the total volume to 1 mL. The change of absorbance was measured at 550 nm for 10 minutes using 1 mL cuvette. The kinetics of reaction was measured by the increase of absorbance as the cytochrome C was reduced at 550 nm over 10 minutes. The activity of NQO1 was measured by the amount of cytochrome C that is being reduced (nmol cytochrome C that was reduced/min/ug NQO1 protein). • Absorption coefficient of Cytochrome C: 21.1 (μmol/mL)^−1cm^−1 • BSA: Bovine Serum Albumin • […]: Tris(hydroxymethyl)aminomethane hydrochloride (buffer solution) • Equipment=Cary 100 UV-Vis Spectrophotometer • The results are shown in Tables 1 to 8.

Chain of NQO1 protein (P15559 whole entry, species assumed): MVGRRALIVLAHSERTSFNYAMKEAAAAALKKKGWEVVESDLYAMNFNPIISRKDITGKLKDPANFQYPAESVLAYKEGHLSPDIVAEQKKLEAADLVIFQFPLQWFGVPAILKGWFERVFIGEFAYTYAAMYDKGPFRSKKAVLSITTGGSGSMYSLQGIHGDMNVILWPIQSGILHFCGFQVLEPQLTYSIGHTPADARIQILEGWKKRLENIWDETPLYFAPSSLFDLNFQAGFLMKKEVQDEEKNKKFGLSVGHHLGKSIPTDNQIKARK

For `O=C1C(=O)c2c(C(F)(F)F)nn(-c3ccccc3)c2-c2ccccc21` [Compound 34, 1-Phenyl-3-(trifluoromethyl)-1H-benzo[g]indazol-4,5-dione], the “NQO1 activity assay Cytochrome C reduced/min/μg NQO1 protein” value (10 nM Compound (Table 1)) is reported as 716 nmol cytochrome C that was reduced/min/ug NQO1 protein.
In the case of `Cc1nn(-c2cncc(Cl)c2)c2c1C(=O)C(=O)c1ccccc1-2` [Compound 39, 1-(5-Chloropyridin-3-yl)-3-methyl-1H-benzo[g]indazol-4,5-dione], the “NQO1 activity assay Cytochrome C reduced/min/μg NQO1 protein” value (50 nM Compound (Table 4)) is listed as 3285 nmol cytochrome C that was reduced/min/ug NQO1 protein.
For the compound `Cc1c2c(nn1S(=O)(=O)c1cccnc1)-c1ccccc1C(=O)C2=O` [Compound 48, 3-Methyl-2-(pyridin-3-ylsulfonyl)-2H-benzo[g]indazol-4,5-dione], for the setting “50 nM Compound (Table 5)”, the “NQO1 activity assay Cytochrome C reduced/min/μg NQO1 protein” value was 1749 nmol cytochrome C that was reduced/min/ug NQO1 protein.
Take `Cc1c2c(nn1S(=O)(=O)c1ccc(C#N)cc1)-c1ccccc1C(=O)C2=O` [Compound 55, 4-(3-Methyl-4,5-dioxo-4,5-dihydro-2H-benzo[g]indazol-2-ylsulfonyl)benzonitrile]: the “NQO1 activity assay Cytochrome C reduced/min/μg NQO1 protein” value (50 nM Compound (Table 7)) was 1892 nmol cytochrome C that was reduced/min/ug NQO1 protein.
In the case of `Cc1c2c(nn1S(=O)(=O)C1CC1)-c1ccccc1C(=O)C2=O` [Compound 53, 2-(Cyclopropylsulfonyl)-3-methyl-2H-benzo[g]indazol-4,5-dione], the “NQO1 activity assay Cytochrome C reduced/min/μg NQO1 protein” value (50 nM Compound (Table 7)) is 1549 nmol cytochrome C that was reduced/min/ug NQO1 protein.
For the compound `CNC(=O)c1nc2n(c1-c1ccccc1)-c1ccccc1C(=O)C2=O` [Compound 8, N-methyl-4,5-dioxo-1-phenyl-4,5-dihydroimidazo[1,2-a]quinolin-2-carboxamide], the “NQO1 activity assay Cytochrome C reduced/min/μg NQO1 protein” value (10 nM Compound (Table 1)) is given as 112 nmol cytochrome C that was reduced/min/ug NQO1 protein.
Take `Cc1nn(Cc2ccccc2)c2c1C(=O)C(=O)c1ccccc1-2` [Compound 63, 1-Benzyl-3-methyl-1H-benzo[g]indazol-4,5-dione]: the “NQO1 activity assay Cytochrome C reduced/min/μg NQO1 protein” value (50 nM Compound (Table 2)) is on record as 1567 nmol cytochrome C that was reduced/min/ug NQO1 protein.
For `Cc1c2c(nn1C(C)C)-c1ccccc1C(=O)C2=O` [Compound 21, 2-Isopropyl-3-methyl-2H-benzo[g]indazol-4,5-dione], where the note is “10 nM Compound (Table 1)”, the “NQO1 activity assay Cytochrome C reduced/min/μg NQO1 protein” value was 925 nmol cytochrome C that was reduced/min/ug NQO1 protein.
As for `Cc1nn(CCCc2ccccc2)c2c1C(=O)C(=O)c1ccccc1-2` [Compound 67, 3-Methyl-1-(3-phenylpropyl)-1H-benzo[g]indazol-4,5-dione], the “NQO1 activity assay Cytochrome C reduced/min/μg NQO1 protein” value (50 nM Compound (Table 8)) is 1836 nmol cytochrome C that was reduced/min/ug NQO1 protein.
Take `COCc1nn(-c2ccccc2)c2c1C(=O)C(=O)c1ccccc1-2` [Compound 18, 3-(Methoxymethyl)-1-phenyl-1H-benzo[g]indazol-4,5-dione]: the “NQO1 activity assay Cytochrome C reduced/min/μg NQO1 protein” value (10 nM Compound (Table 1)) is given as 189 nmol cytochrome C that was reduced/min/ug NQO1 protein.
For the compound `Cc1nn(-c2cccc3ccccc23)c2c1C(=O)C(=O)c1ccccc1-2` [Compound 38, 3-Methyl-1-(naphthalen-1-yl)-1H-benzo[g]indazol-4,5-dione], the “NQO1 activity assay Cytochrome C reduced/min/μg NQO1 protein” value (50 nM Compound (Table 4)) is reported as 2696 nmol cytochrome C that was reduced/min/ug NQO1 protein.
Regarding `Cc1c2c(nn1S(=O)(=O)c1ccccc1Cl)-c1ccccc1C(=O)C2=O` [Compound 46, 2-(2-Chlorophenylsulfonyl)-3-methyl-2H-benzo[g]indazol-4,5-dione], the “NQO1 activity assay Cytochrome C reduced/min/μg NQO1 protein” value (50 nM Compound (Table 5)) is reported as 1522 nmol cytochrome C that was reduced/min/ug NQO1 protein.
